Like-named read-outs stand apart in the source and are kept apart here.
Key:
[1] = system: hES cell derived embryoid bodies; assay: Comparison of potential hepatocyte differentiation agents; type: cell-based, human; conditions: for Effect on hepatocyte differentiation (in words): concentration of 5 mM; for Induction of hepatocyte phenotype: EBs 4 days in suspension, replated on plates coated with collagenase 1, cultured with each compound for 6 days, analogs at 5 mM; for Induction of hepatocyte phenotype: key: +: Causes hepatocyte differentiation and selective elimination of other cell types; −: No inductive effect; ±: Mild inductive effect; may allow growth or survival of other cell types
Procedure: (§1) The effect of sodium butyrate was compared with other potential hepatocyte differentiation agents in a similar protocol. Embryoid bodies were cultured in suspension for 4 days, and then replated on plates coated with collagenase 1. The cells were then cultured in the presence of each compound for 6 days.

[2] = system: Human ES cell derived embryoid bodies; conditions: 5 mM Na butyrate, with or without 1% DMSO, day 7
[3] = system: hES cell derived embryoid bodies; assay: Phenotype of embryoid body cells after 6 days with n-butyrate: immunocytochemistry, glycogen (PAS), BrdU (Example 2); type: cell-based, human; conditions: EBs on Matrigel, 20% FBS + 5 mM sodium n-butyrate
Procedure: Cells were grown on chamber slides in the indicated growth medium, and labeled with 10 μM BrdU for 24 h. Cells were then fixed with 3:1 methanol: acetic acid for 30 minutes, and air-dried overnight in the dark. The fixed cells were rinsed once in PBS, and denatured in 0.07 N NaOH for 2 min followed by quick rinses in PBS pH 8.5 and pH7.4 several times. They were then blocked using 1.5% goat serum (Vector Labs) for 15 min, and incubated with anti BrdU antibody (Sigma) diluted 1:500 in 1.5% goat serum and 0.05% Tween™ 20 for 2 h. The samples were washed thrice in PBS, and then incubated with secondary antibody, which was biotinylated goat anti-mouse immunoglobulin (Vector Labs), at 10 μg/mL diluted in 1.5% horse serum for 30 min. […] Hoechst HO33258 stain (bisbenzimide, Sigma Cat. No. B2883) was mixed into the streptavidin solution at 2.5uM final concentration to stain all the nuclei.
The medium was changed daily or every other day. There was a lot of cell death on day 1 followed by less cell death on the subsequent days.
On the sixth day after plating in the differentiation agent, the cells were analyzed for expression of markers by RT-PCR and immunocytochemistry, following the procedures outlined earlier. Glycogen content in these cells was determined using periodic acid Schiff stain. The number of cells in S phase of cell cycle was determined by incubating the cells with 10 μM BrdU on day 5 after plating, and subsequently staining with anti-BrdU antibody 24 hours later.

[4] = system: hES cell derived embryoid body cells; assay: Immunocytochemistry of embryoid body cells cultured 4 days after plating (Example 1)
Procedure: Confluent monolayer cultures of hES cells on or off feeder cells were harvested by incubating in collagenase for 15-20 min, following which the cells are scraped from the plate. The cells were then dissociated into clusters and plated in non-adherent cell culture plates (Costar) in a medium composed of 80% KO DMEM (Gibco) and 20% non-heat-inactivated FBS (Hyclone), supplemented with 1% non-essential amino acids, 1 mM glutamine, 0.1 mM β-mercaptoethanol. The cells were seeded at a 1:2 ratio in 2 mL medium per well (6 well plate). The EBs were fed every other day by the addition of 2 mL of medium per well. When the volume of medium exceeded 4 mL/well, the EBs were collected and resuspended in fresh medium. After 4-8 days in suspension, the EBs were plated onto a substrate and allowed to differentiate further.
(§2) The fixed cells were rinsed with PBS twice and blocked for 1 hour in 10% goat serum in PBS. They were then incubated in primary antibody diluted in 10% goat serum and PBS for 2 h. Antibody to albumin, alpha fetoprotein (AFP) (Sigma) and α1-antitrypsin (OEB Biosciences Inc.) were diluted at 1:500, cytokeratin, 8, 18 and 19, desmin, (Neomarkers), vimentin (Dako) and SMA (Sigma) were diluted at 1:200. Cells were then washed 3 times with PBS and incubated in secondary antibody, which was FITC-conjugated anti-mouse IgG diluted 1:100 and Hoechst HH33258 (Sigma) at 1:1000 in 5% goat serum in PBS, and incubated for 1 h. The stained cells were then washed 3 times in PBS, and mounted in Vectashield™ (Vector Labs). Images were taken at 10× and 40× using a Nikon Labophot™ equipped with epifluorescence and a spot CCD camera.
Embryoid bodies (EB) were prepared as described in the preceding section. After 5 days in suspension culture, they were harvested and plated on Growth Factor Reduced Matrigel® coated plates and in chamber slides (Nunc). One of the following three conditions was used in parallel: • medium containing 20% fetal bovine serum (FBS); • medium containing 20% FBS and 5 mM sodium butyrate (Sigma); • medium containing 20% FBS, 0.5% DMSO (ATCC), 4 μM dexamethazone (Sigma), 150 ng/ml insulin, 10 ng/ml EGF, 600 nM glucagon (Sigma). In each case, the medium was exchanged every day, and cells were fixed for immunocytochemistry on day 4 after plating.

[5] = system: undifferentiated hES cells; assay: Direct differentiation of hES cells without embryoid bodies, immunocytochemistry (Example 7); type: cell-based, human; conditions: 1% DMSO 4 days, then 2.5% Na-butyrate 6 days
Excerpt: The undifferentiated hES cells were maintained in feeder-free conditions (on Matrigel® in MEF-CM). The strategy was to initiate a global differentiation process by adding the hepatocyte maturation factors DMSO or retanoic acid (RA) to a subconfluent culture. The cells are then induced to form hepatocyte-like cells by the addition of Na-butyrate.
The hES cells were maintained in undifferentiated culture conditions for 2-3 days after splitting. At this time, the cells were 50-60% confluent and the medium was exchanged with unconditioned SR medium containing 1% DMSO. The cultures were fed daily with SR medium for 4 days and then exchanged into unconditioned SR medium containing 2.5% Na-butyrate. The cultures were fed daily with this medium for 6 days; at which time one half of the cultures were evaluated by immunocytochemistry. The other half of the cultures were harvested with trypsin and replated onto collagen, to further promote enrichment for hepatocyte lineage cells. Immunocytochemistry was then performed on the following day.

[6] = system: H9 hES cells; assay: Differentiation of hES cells in feeder-free culture, morphology (Example 5); type: cell-based, human; conditions: feeder-free H9 hES cells on laminin, SR medium + 5 mM sodium butyrate, about six days after treatment
Procedure: Undifferentiated hES colonies were passaged continuously in feeder-free conditions as follows. Cultures were incubated in 1 mg/mL collagenase for about 5 minutes at 37° C. The cells were then harvested by scraping the cells off the surface and dissociating them into small clumps. Cells were split at a 1:3 or 1:6 ratio, ˜55,000 cells/mL (17,000 cells/cm^2). The day after replating, colonies of undifferentiated cells could again be identified. Single cells in between the colonies were differentiated. Over the next few days, the undifferentiated cells were seen to proliferate and the colonies became large and compact. The differentiated cells in between the colonies also became more compact. The cells became confluent after 4-7 days of being fed daily with conditioned media. When the cells reached confluence, they were split once more.
For this example, the H9 hES cells (p30+5) were maintained in feeder-free conditions for 30 days (5 passages) before differentiation. The undifferentiated cells were maintained on laminin and fed with MEF-conditioned medium, as described elsewhere in this disclosure. To induce differentiation, the conditioned medium was replaced with SR medium (without supplemental bFGF) containing 5 mM sodium butyrate.

[7] = system: hES cells; assay: Direct differentiation Protocol 7, cell morphology (FIG. 5); type: cell-based, human; conditions: 4 days in SR medium containing butyrate
Procedure: hES cells undergo the Direct Differentiation protocol detailed earlier, making the adjustments to culture conditions shown in Table 12. Hepatocyte Culture Medium is purchased from Clonetics; Strom's Medium is prepared as described in Runge et al., Biochem. Biophys. Res. Commun. 265:376, 1999. The cell populations obtained are assessed by immunocytochemistry and enzyme activity.
Left column: 10×magnification; Right column: 40×magnification. By 4 days in the presence of butyrate, more than 80% of cells in the culture are large in diameter, containing large nuclei and granular cytoplasm (Row A). After 5 days in SR medium, the cells were switched to HCM. Two days later, many cells are multinucleated, and have a large polygonal shape (Row B). By 4 days in HCM, multinucleated polygonal cells are common, and have a darker cytosol (Row C), by which criteria they resemble freshly isolated human adult hepatocytes (Row D) or fetal hepatocytes (Row E).

[8] = system: EBs generated from hES cells; conditions: 20% FBS + 5 mM Na-butyrate, with or without 1% DMSO, 6 days
Procedure: as §2
EBs were generated from hES cells in feeder-free conditions. After 4 days in suspension, the EBs were plated in 20% FBS medium supplemented with 5 mM Na-butyrate or 5 mM Na-butyrate and 1% DMSO. The EBs were plated on the following matrices: • 1. collagen I (0.03 mg/mL coated overnight at 37° C.) • 2. growth factor reduced Matrigel® (1:10, coated for 1 h at room temp) • 3. gelatin (1% coated for 2 h at 37° C.)
After 6 days in Na-butyrate the cells were evaluated morphologically and using immunocytochemistry for hepatocyte markers.

[9] = system: hES cells; assay: Phenotype of hepatocyte lineage cells made using sodium n-butyrate or Trichostatin A; type: cell-based, human; conditions: 5 mM sodium n-butyrate; 100 nM Trichostatin A
Procedure: as §1
At 75-100 nM, Trichostatin A appeared to both induce hepatocyte differentiation and select against survival of other cell types.

[10] = EBs on Growth Factor Reduced Matrigel, day 4, 20% FBS + 5 mM sodium butyrate, or 20% FBS + 0.5% DMSO + dexamethazone, insulin, EGF, glucagon
[11] = Trypsinization and replating onto collagen, stained the following day

CCC(=O)O [Propionic acid]
Effect on hepatocyte differentiation (in words) ([1]; 6 days): effective in causing hepatocyte differentiation

CC(O)CC(=O)O (stereo not drawn) [β-hydroxybutyric acid]
Induction of hepatocyte phenotype [1]: −

CC(C)C(=O)O [Isobutyric acid]
Induction of hepatocyte phenotype [1]: ± | Effect on hepatocyte differentiation (in words) ([1]; 6 days): effective in causing hepatocyte differentiation

CCCC(=O)[O-].[Na+] [Sodium n-butyrate]
Albumin, percentage of cells staining ([2]; Gelatin coated plates): 56% | CK18, percentage of cells staining ([2]; Gelatin coated plates): 100% | CK19, percentage of cells staining ([2]; Gelatin coated plates): 100% | Glycogen, percentage of cells staining ([2]; Gelatin coated plates): >60% | α1-antitrypsin, percentage of cells staining ([2]; Gelatin coated plates): >90% | α-fetoprotein, percentage of cells staining ([2]; Gelatin coated plates): 0 | Albumin, percentage of cells staining ([2]; Matrigel coated plates): 50% | CK18, percentage of cells staining ([2]; Matrigel coated plates): 100% | CK19, percentage of cells staining ([2]; Matrigel coated plates): 100% | Glycogen, percentage of cells staining ([2]; Matrigel coated plates): >60% | α1-antitrypsin, percentage of cells staining ([2]; Matrigel coated plates): >90% | α-fetoprotein, percentage of cells staining ([2]; Matrigel coated plates): 0 | Albumin, % positive cells ([3]; day 6): 55% | CK8, % positive cells ([3]; day 6): 100% | CK18, % positive cells ([3]; day 6): 100% | CK19, % positive cells ([3]; day 6): 100% | Desmin, % positive cells ([3]; day 6): 0% | Glycogen staining (Periodic Acid Schiff), % positive cells ([3]; day 6): 60% | α1-antitrypsin, % positive cells ([3]; day 6): 90% | α-fetoprotein, % positive cells ([3]; day 6): 0% | BrdU staining, % positive cells ([3]; 10 μM BrdU on day 5, stained 24 hours later): 16% | Cell survival and morphology (in words) ([4]; 20% FBS + 5 mM sodium butyrate, 1 day after plating): fairly homogenous population of cells survived | AFP, cells showing positive staining [4, 10]: did not express AFP | Albumin, percentage of cells showing positive staining [4, 10]: about 30% | CK8, percentage of cells showing positive staining [4, 10]: 100% + ve | CK18, percentage of cells showing positive staining [4, 10]: 100% + ve | CK19, percentage of cells showing positive staining [4, 10]: 100% + ve | SMA, percentage of cells showing positive staining [4, 10]: <1% + ve | Vimentin, percentage of cells showing positive staining [4, 10]: 100% + ve | α1-antitrypsin, percentage of cells showing positive staining [4, 10]: >60% + ve | Albumin, percentage of cells showing positive staining ([4]; EBs on Growth Factor Reduced Matrigel, day 4, 20% FBS + 5 mM sodium butyrate, or 20% FBS + 0.5% DMSO + dexamethazone, insulin, EGF, glucagon, listed as Na butyrate): 30% + ve* | Cultured embryoid body derived cells released from the substrate into the medium ([4]; first day of culture with the differentiation agent): about 90% | Effect on hepatocyte differentiation (in words) ([1]; 6 days): equally effective | Cytokeratin 8, % positive ([5]; No trypsinization): >80% | Cytokeratin 18, % positive ([5]; No trypsinization): >80% | Cytokeratin 19, % positive ([5]; No trypsinization): >80% | albumin, % positive ([5]; No trypsinization): 11% | glycogen, % positive ([5]; No trypsinization): 0% | α1-antitrypsin, % positive ([5]; No trypsinization): >80% | α-fetoprotein, % positive ([5]; No trypsinization): 0% | Cytokeratin 8, % positive [5, 11]: 45% | Cytokeratin 18, % positive [5, 11]: 30% | Cytokeratin 19, % positive [5, 11]: 30% | albumin, % positive [5, 11]: 63% | glycogen, % positive [5, 11]: >50% | α1-antitrypsin, % positive [5, 11]: >80% | α-fetoprotein, % positive [5, 11]: 0% | Cell morphology (in words) [6]: contained many patches of hepatocyte-like cells | Cells large in diameter, containing large nuclei and granular cytoplasm ([7]; listed as butyrate): more than 80% | Cells large in diameter, containing large nuclei and granular cytoplasm ([7]; listed as sodium n-butyrate): More than 80% | Cytokeratin 18, percentage of cells positive ([8]; Collagen I): 100% | Cytokeratin 19, percentage of cells positive ([8]; Collagen I): 100% | Glycogen, percentage of cells positive ([8]; Collagen I): >60% | albumin, percentage of cells positive ([8]; Collagen I): 79% | α1-antitrypsin, percentage of cells positive ([8]; Collagen I): >90% | α-fetoprotein, percentage of cells positive ([8]; Collagen I): 0 | Cytokeratin 18, percentage of cells positive ([8]; Gelatin): 100% | Cytokeratin 19, percentage of cells positive ([8]; Gelatin): 100% | Glycogen, percentage of cells positive ([8]; Gelatin): >60% | albumin, percentage of cells positive ([8]; Gelatin): 50% | α1-antitrypsin, percentage of cells positive ([8]; Gelatin): >90% | α-fetoprotein, percentage of cells positive ([8]; Gelatin): 0 | Cytokeratin 18, percentage of cells positive ([8]; Matrigel): 100% | Cytokeratin 19, percentage of cells positive ([8]; Matrigel): 100% | Glycogen, percentage of cells positive ([8]; Matrigel): >60% | albumin, percentage of cells positive ([8]; Matrigel): 56% | α1-antitrypsin, percentage of cells positive ([8]; Matrigel): >90% | α-fetoprotein, percentage of cells positive ([8]; Matrigel): 0 | CK18, positive cells [9]: 100% | CK19, positive cells [9]: 100% | Glycogen staining, positive cells [9]: >60% | albumin, positive cells [9]: 62% | α1-antitrypsin, positive cells [9]: 90% | α-fetoprotein, positive cells [9]: 0%

CCC(O)C(=O)O (stereo not drawn) [α-hydroxybutyric acid]
Induction of hepatocyte phenotype [1]: −

CCCCCC(=O)O [Caproic acid]
Induction of hepatocyte phenotype [1]: −

[Cl-].[Na+] [NaCl]
Effect on hepatocyte differentiation (in words) ([1]; 6 days): no effect

CC(/C=C/C(=O)NO)=C\[C@@H](C)C(=O)c1ccc(N(C)C)cc1 [Trichostatin A]
Concentration range found ineffective ([1]; EB-derived cells, 6 days): 10 to 50 nM | Concentration range found to be toxic to cells ([1]; EB-derived cells, 6 days): 2.5 to 100 µM | Concentration range that induces hepatocyte differentiation and selects against survival of other cell types ([1]; EB-derived cells, 6 days): 0.075 to 0.1 µM | Induction of hepatocyte phenotype [1]: + | CK18, positive cells [9]: >70% | CK19, positive cells [9]: >90% | Glycogen staining, positive cells [9]: >50% | albumin, positive cells [9]: 41% | α1-antitrypsin, positive cells [9]: 81%

CCCCC(=O)O [Valeric acid]
Induction of hepatocyte phenotype [1]: −

CCCC(=O)O [n-Butyric Acid]
Effect on hepatocyte differentiation (in words) ([1]; 6 days): equally effective
